# Reference: patent publication US5041552A, “Amino acid derivatives with angiotensin II antagonist properties” (Warner-Lambert Company, priority 1990, dated 1991)
# Target: T1, angiotensin II receptor (rat liver membranes) (Rattus norvegicus, UniProt P25095)
# T1 construct: rat liver membranes; from tissue; host or cells: rat liver membranes
# T1 sequence (P25095 1-359): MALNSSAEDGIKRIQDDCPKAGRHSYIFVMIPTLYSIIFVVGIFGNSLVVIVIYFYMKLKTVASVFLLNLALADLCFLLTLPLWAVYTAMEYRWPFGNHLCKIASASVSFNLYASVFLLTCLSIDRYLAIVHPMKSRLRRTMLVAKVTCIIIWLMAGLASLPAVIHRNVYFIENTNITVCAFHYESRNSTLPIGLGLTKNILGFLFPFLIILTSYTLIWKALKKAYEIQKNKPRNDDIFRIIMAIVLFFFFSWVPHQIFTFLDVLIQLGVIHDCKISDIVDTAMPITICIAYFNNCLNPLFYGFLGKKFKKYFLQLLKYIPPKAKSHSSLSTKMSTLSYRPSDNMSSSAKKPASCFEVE
# Assay: Receptor Binding of Angiotensin II (RBAT): inhibition of tritiated angiotensin II binding to rat liver membranes
# Conditions: in vitro, read-out: RBAT IC50 (concentration required to displace 50% of the specifically bound tritiated angiotensin II)
# Description: The effectiveness of the compounds of the instant invention is determined by a test (RBAT) entitled Receptor Binding of Angiotensin II. In this in vitro test the inhibition of tritiated angiotensin II binding to rat liver membranes is measured.
# *The IC50 is a concentration required to displace 50% of the specifi
# bound tritiated angiotensin II.
row,SMILES,IC50 [µM]
1,CCCCc1nc(Cl)c(CO)n1Cc1ccc(NC(=O)C(NC(=O)OC(C)(C)C)C(=O)O)cc1 (racemic) [Example 11],6
2,"CCCCc1nc(Cl)c(CO)n1Cc1ccc(NC(=O)[C@H](Cc2ccc(O)cc2)NC(=O)OC(C)(C)C)cc1 [6 (4-Chloro), (S)-[2-[[4-[[2-Butyl-4-chloro-5-(hydroxymethyl)-1H-imidazol-1-yl]methyl]phenyl]amino]-1-[(4-hydroxyphenyl)methyl]-2-oxoethyl]-carbamic acid, 1,1-dimethylethyl ester]",3
3,CCCCc1nc(Cl)c(CO)n1Cc1ccc(NC(=O)[C@H](Cc2ccccc2)NS(=O)(=O)N2CCOCC2)cc1 [Example 16],2.5
4,CCCCc1nc(Cl)c(CO)n1Cc1ccc(NC(=O)[C@H](Cc2ccccc2)NS(=O)(=O)c2ccccc2)cc1 [Example 17],3.6
5,"CCCCc1nc(Cl)c(CO)n1Cc1ccc(NC(=O)N2CCC[C@H]2C(=O)OC)cc1 [Example 18, 1-[[4-[[2-Butyl-4-chloro-5-(hydroxymethyl)-1H-imidazol-1-yl]methyl]phenyl]amino]carbonyl-2-pyrrolidinecarboxylic acid, methyl ester]",> 10

# More lines, now with the values ahead:
row,IC50 [µM],SMILES
1,10,"CCCCc1nc(Cl)c(CO)n1Cc1ccc(NC(=O)C(NC(=O)OCc2ccccc2)C(=O)O)cc1 (racemic) [Example 13, (RS)-3-[[4-[[2-Butyl-4-chloro-5-(hydroxymethyl)-1H-imidazol-1-yl-methyl]phenyl]amino]-3-oxo-2[(phenyl-methoxy)-carbonyl]amino]-propanoic acid]"
2,3,"CCCCc1nc(Cl)c(CO)n1Cc1ccc(NC(=O)[C@H](CC#N)NC(=O)OCc2ccccc2)cc1 [Example 5, (S)-[2-[[4-[[2-Butyl-4-chloro-5-(hydroxymethyl)-1H-imidazol-1-yl]methyl]phenyl]amino]-1-(cyanomethyl)-2-oxoethyl]-carbamic acid, phenylmethyl ester]"
3,4.5,"CCCCc1ncc(CO)n1Cc1ccc(NC(=O)[C@H](Cc2ccc(O)cc2)NC(=O)OC(C)(C)C)cc1 [Example 6, (S)-[2-[[4-[[2-butyl-5-(hydroxymethyl)-1H-imidazol-1-yl]methyl]phenyl]amino]-1-[(4-hydroxyphenyl)methyl]-2-oxoethyl]-carbamic acid, 1,1-dimethylethylester]"
4,4,CCCCc1nc(Cl)c(CO)n1Cc1ccc(NC(=O)[C@H](CC(=O)OC(C)(C)C)NC(=O)OCc2ccccc2)cc1 [Example 7]
5,> 10,CCSc1nnc(CO)n1Cc1ccc(NC(=O)[C@H](CC(=O)O)NC(=O)OCc2ccccc2)cc1 [Example 9]
